Measurements taken from US20250144050A1, “AMINOTHIOL-CONJUGATES, COMPOSITIONS, AND METHODS OF USE THEREOF” (THE BURLINGTON HC RESEARCH GROUP, INC., priority 2021, published 2025).
Like-named read-outs stand apart in the source and are kept apart here.

What was measured:
[1] = Dose-response metrics in immortalized, non-tumorigenic cells; type: cell-based; details: African green monkey, Vero cells (immortalized, non-tumorigenic); read-out: LC50 (the source's name)
Description: (§1) To determine potential cytostatic or cytocidal effects of BRG prodrugs in immortalized, non-tumorigenic cells, Vero, HEK-293t, LP9, and HPM3 cells were exposed to 4SP65 while only Vero cells also were treated with 1LP65. […] Comparisons across other dose-response metrics could not be made because such levels of effects were not induced in NHMECs exposed to 4SP65. […] Since cytostatic and cytolytic effects at the TGI and LC50/99 levels were induced in Vero cells exposed to 1LP65 but not in NHMECs, there is a significant difference in the effects of 1LP65 in Vero cells compared to NHMECs, but p values based upon t-test evaluations cannot be defined due to lack of numerical data.

[2] = test system: HMESO-1 malignant mesothelioma cells; type: cell-based
Description: (§2) Trypan Blue exclusion was applied as a complementary confirmation probe for cell death.
(§3) Statistical comparisons of differences in individual dose-response metrics between individual/paired drug treatments and various cell lines were conducted using the Student's t-test, with P-values <0.05 considered significant.
(§4) Relative cell growth inhibition values for differing levels each drug alone and in combination were input into SynergyFinder to generated dose-response curves for each drug alone, to produce a dose-response matrix, to visualize the distribution of areas of differing degrees of synergism in a 2-dimension heatmap and 3-dimension volcano plot, and to calculate average and maximum synergy scores in selected human cancer cell lines. […] Synergy scores <10 means that the interaction between two drugs was likely to be antagonistic; scores from −10 to 10 means the interaction between two drugs was likely to be additive; and scores >10 means the interaction between two drugs was likely to be synergistic.

[3] = test system: H1975 cells
[4] = test system: Normal human mammary epithelial cells (M99005); test: Trypan Blue cell count, normal cells, 48 hours; type: cell-based
Description: For comparison purposes, the growth inhibitory does of 4SP65 required to reduce the growth of normal human mammary epithelial cells by 50% was above 300 micromolar. The exact value has not been determined as of yet due to the fact that 4SP65 forms a hydrogel in medium when present at a concentration that exceeds 300 micromolar.
Normal human mammary epithelial cells were grown as described in Example 1, with the exception that the growth medium was as MEBM (purchased from American Type Tissue Culture Collection). When the cells had reach 50 to 60%, the growth medium was removed and medium supplemented with 0 to 300 microM 4SP65 was added to each well containing cells. At 48 hours, the cells were removed by trypsinization stained with Trypan Blue, and counted using a hemocytometer. […] The finding of a biphasic growth inhibition curve for WR-1065 has been reported previously (Calabro-Jones et al. “The limits to radioprotection of Chinese hamster V79 cells by WR-1065 under aerobic conditions.” Radiat Res. 149:550-559 (1998), which is hereby incorporated by reference in its entirety). Additional experiments now have been completed and are described infra).

[5] = test system: A549 NSCLC cells; details: 48 h; for GI50 / IC50 / LC99 / TGI: each drug alone
Description: as §2, §3, §4

[6] = test system: SKOV3 ovarian cancer cells; type: cell-based
Description: as §2, §3, §4

[7] = test system: NCI-H460 NSCLC cells; type: cell-based
Description: as §2, §3, §4

[8] = test system: HPM3 cells; test: Dose-response metrics in immortalized, non-tumorigenic cells; type: cell-based
Description: as §1

[9] = test system: HCC38 cells; test: CyQUANT cell viability assay, 48-hour exposure; type: cell-based, human
Description: After drug treatments, fluorescence readings from 96-well plates were obtained using the CyQUANT dye and compared to standard curves for each cell line to determine cell viability. […] Trypan blue exclusion was used to estimate cell numbers in a few pilot experiments and was thereafter applied to confirm cell death.
A series of experiments was conducted to assess the relative efficacy of 4SP65, 1LP65, and amifostine as single agents in the same human cancer cell lines. First, the effectiveness of 4SP65 was tested against 15 cancer cell lines derived from seven tissues. […] The effectiveness of 0 to ≤500 μM amifostine was tested in sets of cancer cell lines reported to have either medium, high, or no expression of alkaline phosphatase.
Trans. R Soc. Lond. […] Using cell numbers based on fluorescence measurements and standard curves [time zero, (Tz), control growth, (C), and test growth in the presence of drug at five or more concentration levels (Ti)], the percentage growth was calculated at each drug concentration level. The percentage of growth inhibition was calculated as follows:
The LC50/99 was calculated using Equation 2=−50 and Eq. 2=−99, respectively. […] For NHMECs, the relationships between drug exposure levels and fluorescence units were used to define dose-response metrics. The selectivity index (SI) values for individual drug treatments were calculated as IC50 levels in NHMECs divided by the IC50 values in cancer cell lines.

[10] = test system: PPM-Mill malignant mesothelioma cells; type: cell-based
Description: as §2, §3, §4

[11] = NCI-H460, each drug alone, 48 h
[12] = PPM-Mill, each drug alone, 48 h

Work on `COCCOCCOCCOCCOCCOCCSSCCNCCCN` [1LP65, m-PEG6-S-S-WR1065] yielded a CC50 [1] of 129 ± 3.4 µM.

In the case of 4-star PEG-S-S-WR1065 [4SP65], the CC50 [2] is reported as 7 ± 0.1 µM, the GI50 ([2]; HMESO-1, each drug alone, 48 h) is reported as 2 ± 0.3 µM and the IC50 ([2]; HMESO-1, each drug alone, 48 h) is reported as 4.7 ± 0.2 µM. For the same compound, the LC99 ([2]; HMESO-1, each drug alone, 48 h) was 12.4 ± 0.1 µM, the TGI ([2]; HMESO-1, each drug alone, 48 h) was 4.3 ± 0.2 µM and the CC50 [3] was 7.2 ± 1.4 µM. For the same compound, the GI50 ([3]; H1975, each drug alone, 48 h) was 3.2 ± 1.1 µM, the IC50 ([3]; H1975, each drug alone, 48 h) was 3.5 ± 0.9 µM and the LC99 ([3]; H1975, each drug alone, 48 h) was 8.9 ± 1.6 µM. For the same compound, the TGI ([3]; H1975, each drug alone, 48 h) was 5.5 ± 1.4 µM, the “inhibition of cell growth” value ([4]; 0 to 300 microM except 100 microM, 48 hours) was “No inhibition of cell growth was observed” and the EC50 ([4]; normal human mammary epithelial cells, read-out: growth inhibitory dose required to reduce growth by 50%) was greater than 300 µM. The “LC99, amount of each drug in combination” value ([5]; 4SP65-cisplatin combined) was 8 µM, the GI50 ([5]; cisplatin series) was 5.4 ± 2.5 µM and the IC50 ([5]; cisplatin series) was 6.8 ± 1.3 µM. For the same compound, the LC99 ([5]; cisplatin series) was 14.9 ± 3.8 µM, the TGI ([5]; cisplatin series) was 8.3 ± 1.5 µM and the GI50 ([5]; gefitinib series) was 6 ± 0.6 µM. The IC50 ([5]; gefitinib series) was 7.4 ± 0.7 µM, the LC99 ([5]; gefitinib series) was 12.3 ± 3.8 µM and the TGI ([5]; gefitinib series) was 11.3 ± 1.5 µM. The CC50 [6] was 9.7 ± 0.5 µM, the GI50 ([6]; SKOV3, each drug alone, 48 h) was 4.3 ± 1 µM and the IC50 ([6]; SKOV3, each drug alone, 48 h) was 5.2 ± 1 µM. The LC99 ([6]; SKOV3, each drug alone, 48 h) was 10.0 ± 0.8 µM, the TGI ([6]; SKOV3, each drug alone, 48 h) was 7.3 ± 0.8 µM and the “fold more effective as cytostatic agent than PRIMA-1/PRIMA-1met (GI50)” value ([6]; TP53-null SKOV3 cells) was 16 fold. For the same compound, the CC50 [7] was 17.6 ± 0.5 µM, the “Fold increase in efficacy at GI50” value ([7]; NCI-H460, drug alone vs in 4SP65-cisplatin combination) was 36 fold and the GI50 [7, 11] was 12.3 ± 1.1 µM. It also gave an IC50 [7, 11] of 13.3 ± 1 µM, an LC99 [7, 11] of 18.2 ± 0.4 µM and a TGI [7, 11] of 16.9 ± 0.6 µM. For the same compound, the GI50 [8] was roughly 10 µM, the “Relative potency compared to amifostine at IC50” value ([9]; HCC38 cells) was 67 fold and the selectivity index ([9]; IC50 of 76 in most sensitive NHMEC strain / IC50 in HCC38) was greater than 19. The CC50 [10] was 16.2 ± 3.2 µM, the GI50 [10, 12] was 8.4 ± 1.5 µM and the IC50 [10, 12] was 10 ± 1.9 µM. For the same compound, the LC99 [10, 12] was 17.6 ± 3.5 µM and the TGI [10, 12] was 14.1 ± 3.3 µM.
